This note sets out measurements from US20260183405A1, “SMALL MOLECULE-DRUG-CONJUGATES CLEAVABLE IN A TUMOR MICROENVIRONMENT” (priority 2022, published 2026).

A short description of data set [1]: in vitro. To be noted: human, Caco-2. The protocol: (§1) Caco-2: The cell permeability of a substance can be investigated by means of in vitro testing in a flux assay using Caco-2 cells [M. D. Troutman and D. R. Thakker, Pharm. Res. 20 (8), 1210-1224 (2003)]. For this purpose, the cells were cultured for 15-16 days on 24-well filter plates. For the determination of permeation, the respective test substance was applied in a HEPES buffer to the cells either apically (A) or basally (B) and incubated for 2 hours. After 0 hours and after 2 hours, samples were taken from the cis and trans compartments. The samples were separated by HPLC (Agilent 1200, Böblingen, Germany) using reverse phase columns. The HPLC system was coupled via a Turbo Ion Spray Interface to a Triple Quadropol mass spectrometer API 4000 (AB SCIEX Deutschland GmbH, Darmstadt, Germany). The permeability was evaluated on the basis of a Papp value, which was calculated using the formula published by Schwab et al. [D. Schwab et al., J. Med. Chem. 46, 1716-1725 (2003)]. A substance was classified as actively transported when the ratio of Papp (B-A) to Papp (A-B) (efflux ratio) was >2 or <0.5. […] In Table 2, reference compounds are provided for comparison.

The nature of data set [2]: Pharmacokinetics in rat after intravenous administration. The class given is in vivo. To be noted: plasma, male rats, intravenous bolus 0.5 mg/kg. The protocol:
Male rats (n=3) were given an intravenous 0.5 mg/kg bolus dose of test article dissolved in plasma with 1% DMSO and 2% ethanol. Serial blood samples were collected up to 24 hours post-dose. Plasma was harvested from blood samples and stored frozen until sample analysis. Test article plasma concentrations were analyzed by LC/MS/MS. Pharmacokinetic parameters were calculated using non-compartmental analysis.

Data set [3] relates to HT29. The experiment in a line: Cytotoxicity in vitro in the presence and absence of elastase (MTT assay). The format is cell-based. To be noted: HT29 cells, 72 h incubation. Summed up: (§2)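 After overnight-scale settling (24 h) and medium exchange, compound is added with or without 10 nM elastase and incubated 72 h. Viability is read by MTT absorbance at 570 nm, and IC50 values are taken from dose-response curves.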

Data set [4] relates to NCI-H292. Described as above. The class given is cell-based. Conditions: NCI-H292 cells, 72 h incubation. Summed up: as §2
The subject of data set [5] is 786-O. The data set is described as above. The format is cell-based. To be noted: 786-O cells, 72 h incubation. The gist of the method: as §2
The test system of data set [6] is SUM149PT. The description is as above. The format is cell-based. To be noted: SUM149PT cells, 72 h incubation. The gist of the method: as §2
Data set [7] relates to Caco-2 cells. The experiment in a line: Caco-2 flux assay for cellular permeability. To be noted: for Caco-2 Flux Papp A-B [nm/s]: Caco-2 cells, apical to basal, 2 hours incubation; for Caco-2 Flux Efflux ratio: ratio Papp (B-A) to Papp (A-B), actively transported when >2 or <0.5, 0.5-2 not actively transported. As for the experimental part: as §1
Background: Caco-2 cells form a polarised layer with tight junctions and transporters.

Where [8] appears, read: compound alone, read-out: IC50 without neutrophil elastase.
Where [9] appears, read: with 10 nM elastase (NE), read-out: IC50 with neutrophil elastase.

Where two headings read alike, the source gives them in different places.

The term Papp A→B denotes how fast a substance crosses the layer from the apical side. The low end stands for slow passage, the high end for fast passage. Usually efflux ratio stands for the permeability from basolateral to apical divided by that in the opposite direction, in the common usage. For `CC(C)(C)[C@H](c1cc(-c2cc(F)ccc2F)cn1Cc1ccccc1)N(CCC(N)C(F)F)C(=O)CO` (stereo partly shown), in data set [1], the apical-to-basolateral permeability (Papp A→B) at 2 h was in the range of 10 to 99.9 ×10⁻⁶ cm/s and the efflux ratio at 2 h lay in the range of 0.5 to 2.

In the case of `COC(=O)[C@@H](N)CCN(C(=O)CO)[C@@H](c1cc(-c2cc(F)ccc2F)cn1Cc1ccccc1)C(C)(C)C`, in data set [1], the apparent permeability from apical to basolateral (Papp A→B) at 2 h lay within 1 to 9.9 ×10⁻⁶ cm/s and the efflux ratio at 2 h was greater than 2.

`CC(C)(C)[C@H](c1cc(-c2cc(F)ccc2F)cn1Cc1ccccc1)N(CCCN)C(=O)CO`: in data set [1], the apical-to-basolateral permeability (Papp A→B) at 2 h lay in the range of 0.1 to 0.9 ×10⁻⁶ cm/s and the efflux ratio at 2 h is greater than 2.

The AUC is the area under the concentration-time curve, a measure of exposure. By half-life is commonly meant the time needed for the level to fall by half in the phase considered. The term IC50 denotes the concentration needed to halve the response being measured. Molecule `CCCNC(=O)Nc1cccc(S(=O)(=O)Nc2cccc([C@@H](CC(=O)O)NC(=O)Nc3ccc(NC(=O)NCCOCCOCCOCCC(=O)NCCCC[C@H](NC(=O)CCOCCOCCOCCNC(=O)Nc4ccc(NC(=O)N[C@H](CC(=O)O)c5cccc(NS(=O)(=O)c6cccc(NC(=O)NCCC)c6)c5)cc4)C(=O)NCCOCCOCCOCCC(=O)N[C@@H](CC(=O)O)C(=O)N4CCC[C@H]4C(=O)N[C@H](C(=O)O[C@@H](c4ccccc4)[C@@H](C)NC(=O)[C@H](C)[C@@H](OC)[C@@H]4CCCN4C(=O)C[C@@H](OC)[C@H]([C@@H](C)CC)N(C)C(=O)[C@@H](NC(=O)[C@@H](NC)C(C)C)C(C)C)C(C)C)cc3)c2)c1` [Compound 14] came in with an AUC in data set [2] of 100 to 500 µg·h/mL. This molecule gave a half-life in data set [2] of 10 to 40 h. Further, the clearance in data set [2] (read-out: CL plasma) lay within 0.02 to 0.5 mL/min/kg. Moreover, the Vd in data set [2] (read-out: VSS) was in the range of 0.1 to 0.3 L/kg. Also, the IC50 in data set [3] (setting [8]) was in the range of 100 to 999 nM; in data set [3] (setting [9]) it was 0.1 to 1 nM; in data set [4] (setting [8]), 10 to 99 nM; in data set [4] (setting [9]), 0.1 to 1 nM; in data set [5] (setting [8]), 100 to 999 nM; in data set [5] (setting [9]), 1 to 9.9 nM. For the same molecule, the values for the IC50 in data set [6] (setting [8]) and in data set [6] (setting [9]) were 10 to 99 nM and 0.1 to 1 nM, respectively.

Regarding `CCCNC(=O)Nc1cccc(S(=O)(=O)Nc2cccc([C@@H](CC(=O)O)NC(=O)Nc3ccc(NC(=O)NCCOCCOCCOCCC(=O)N[C@@H](CC(N)=O)C(=O)N4CCC[C@H]4C(=O)N[C@H](C(=O)N[C@@H](CCN(C(=O)CO)[C@@H](c4cc(-c5cc(F)ccc5F)cn4Cc4ccccc4)C(C)(C)C)C(=O)NC)C(C)C)cc3)c2)c1` [Compound 19, sodium N^2-(14-{4-[({(1R)-2-carboxylato-1-[3-({3-[(propylcarbamoyl)amino]benzene-1-sulfonyl}amino)phenyl]ethyl}carbamoyl)amino]anilino}-14-oxo-4,7,10-trioxa-13-azatetradecanan-1-oyl)-L-asparaginyl-L-prolyl-N-[(2S)-4-[{(1R)-1-[1-benzyl-4-(2,5-difluorophenyl)-1H-pyrrol-2-yl]-2,2-dimethylpropyl}(hydroxyacetyl)amino]-1-(methylamino)-1-oxobutan-2-yl]-L-valinamide], the IC50 is greater than 1000 nM in data set [3] (setting [8]); 1 to 9.9 nM in data set [3] (setting [9]); greater than 1000 nM in data set [4] (setting [8]); 0.1 to 1 nM in data set [4] (setting [9]); greater than 1000 nM in data set [5] (setting [8]); 1 to 9.9 nM in data set [5] (setting [9]). Also, the 50% inhibitory concentration (IC50) in data set [6] (setting [8]) is greater than 1000 nM; in data set [6] (setting [9]) it was 0.1 to 1 nM.

In the case of `CCc1c2c(nc3ccccc13)-c1cc3c(c(=O)n1C2)COC(=O)[C@@]3(CC)OC(=O)[C@@H](NC(=O)[C@@H]1CCCN1C(=O)[C@H](CC(=O)O)NC(=O)CCOCCOCCOCCNC(=O)NC[C@H](NC(=O)CCCCNc1cc(C)ccn1)C(=O)N[C@@H](CC(=O)O)c1cc(Cl)cc(Cl)c1)C(C)C` [Compound 29, disodium (4S)-4,11-diethyl-3,14-dioxo-3,4,12,14-tetrahydro-1H-pyrano[3′,4′:6,7]indolizino[1,2-b]quinolin-4-yl 1-{(2S,20S)-20-{[(1S)-2-carboxylato-1-(3,5-dichlorophenyl)ethyl]carbamoyl}-2-(carboxylatomethyl)-26-[(4-methylpyridin-2-yl)amino]-4,17,22-trioxo-7,10,13-trioxa-3,16,18,21-tetraazahexacosanan-1-oyl}-L-prolyl-L-valinate], the concentration for half-maximal inhibition (IC50) is greater than 1000 nM in data set [3] (setting [8]); 10 to 99 nM in data set [3] (setting [9]); 100 to 999 nM in data set [4] (setting [8]); 1 to 9.9 nM in data set [4] (setting [9]); 100 to 999 nM in data set [5] (setting [8]); 1 to 9.9 nM in data set [5] (setting [9]). For the same molecule, the figures for the IC50 in data set [6] (setting [8]) and in data set [6] (setting [9]) were 100 to 999 nM and 1 to 9.9 nM, respectively.

For the molecule `CC[C@@]1(O)C(=O)OCc2c1cc1n(c2=O)Cc2c-1nc1cc(F)c(C)c3c1c2[C@@H](NC(=O)CO)CC3` [Ref 2, DXd, reference compound], in data set [7], the “Caco-2 Flux Papp A-B [nm/s]” value is given as “AA (AA = 1-9 nm/s)” and the “Caco-2 Flux Efflux ratio” value is recorded as “A (A = actively transported)”.

With `CCc1c2c(nc3ccccc13)-c1cc3c(c(=O)n1C2)COC(=O)[C@]3(O)CC`, in data set [1], the Papp A→B at 2 h lay in the range of 10 to 99.9 ×10⁻⁶ cm/s and the efflux ratio at 2 h lay within 0.5 to 2.

Take `CCCNC(=O)Nc1cccc(S(=O)(=O)Nc2cccc([C@@H](CC(=O)O)NC(=O)Nc3ccc(NC(=O)NCCOCCOCCOCCC(=O)N[C@@H](CCC(=O)NCCOCCOCCOCCC(=O)N[C@@H](CC(=O)O)C(=O)N4CCC[C@H]4C(=O)N[C@H](C(=O)O[C@]4(CC)C(=O)OCc5c4cc4n(c5=O)Cc5c-4nc4ccccc4c5CC)C(C)C)C(=O)NCCOCCOCCOCCC(=O)N[C@@H](CC(=O)O)C(=O)N4CCC[C@H]4C(=O)N[C@H](C(=O)O[C@]4(CC)C(=O)OCc5c4cc4n(c5=O)Cc5c-4nc4ccccc4c5CC)C(C)C)cc3)c2)c1` [Compound 3]: the half-inhibitory concentration (IC50) fell in the range of 100 to 999 nM in data set [3] (setting [8]); 1 to 9.9 nM in data set [3] (setting [9]); 100 to 999 nM in data set [4] (setting [8]); 1 to 9.9 nM in data set [4] (setting [9]); 100 to 999 nM in data set [5] (setting [8]); 1 to 9.9 nM in data set [5] (setting [9]). The concentration for half-maximal inhibition (IC50) in data set [6] (setting [8]) was in the range of 10 to 99 nM; in data set [6] (setting [9]) it was 1 to 9.9 nM.

Take “exatecan mesylate [Ref 1, reference compound]”: in data set [7], the “Caco-2 Flux Papp A-B [nm/s]” value is “CC (CC = 100-999 nm/s)” and the “Caco-2 Flux Efflux ratio” value is “B (B = not actively transported)”.

For `CC[C@@]1(O)C(=O)OCc2c1cc1n(c2=O)Cc2cc3cc4c(cc3nc2-1)OCO4` [Ref 3, 10,11-methylenedioxy-camptothecin, reference compound], in data set [7], the “Caco-2 Flux Papp A-B [nm/s]” value was “CC (CC = 100-999 nm/s)” and the “Caco-2 Flux Efflux ratio” value is recorded as “B (B = not actively transported)”.

Turning to `CC(C)[C@H](NC(=O)[C@@H]1CCCN1C(=O)[C@H](CC(=O)O)NC(=O)CCOCCOCCOCCNC(=O)CCC(=O)Nc1nnc(S(N)(=O)=O)s1)C(=O)N=[S@](C)(=O)Cc1cc2nc(c1)OCCCOc1cc(F)ccc1-c1cc(ncc1F)N2` (relative stereo) [Compound 10, sodium 1-{(2S)-2-(carboxylatomethyl)-4,17,20-trioxo-20-[(5-sulfamoyl-1,3,4-thiadiazol-2-yl)amino]-7,10,13-trioxa-3,16-diazaicosanan-1-oyl}-L-prolyl-N—[(R*)—{[15,19-difluoro-3,4-dihydro-2H,11H-10,6-(azeno)-12,16-(metheno)-1,5,11,13-benzodioxadiazacyclooctadecin-8-yl]methyl}(methyl)oxo-lambda6-sulfanylidene]-L-valinamide], the IC50 in data set [3] (setting [8]) was greater than 1000 nM; in data set [3] (setting [9]), 1 to 9.9 nM; in data set [4] (setting [8]) it was 100 to 999 nM; in data set [4] (setting [9]), 1 to 9.9 nM; in data set [5] (setting [8]), greater than 1000 nM; in data set [5] (setting [9]), 1 to 9.9 nM. Besides, the IC50 in data set [6] (setting [8]) was in the range of 100 to 999 nM; in data set [6] (setting [9]), 1 to 9.9 nM.
